Values quoted from earlier work in patent US8349312B2, “Proline substituted cyclosporin analogues” (Enanta Pharmaceuticals, Inc., priority 2009, dated 2013).

Legend:
[1] = molecular target: cyclophilin A (Homo sapiens, UniProt P62937)
[2] = test system: hepatitis C virus; details: Paeshuyse et al., Antiviral Research 65(3):A41 (2005)

Chain of cyclophilin A (P62937 whole entry, species assumed): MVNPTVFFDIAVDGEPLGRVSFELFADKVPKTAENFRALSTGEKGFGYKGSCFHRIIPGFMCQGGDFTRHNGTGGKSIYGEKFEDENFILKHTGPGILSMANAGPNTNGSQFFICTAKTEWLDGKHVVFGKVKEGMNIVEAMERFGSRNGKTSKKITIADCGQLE

## C/C=C/C[C@@H](C)[C@@H](O)[C@H]1C(=O)N[C@@H](CC)C(=O)N(C)[C@H](C)C(=O)N(CC)[C@@H](C(C)C)C(=O)N[C@@H](C(C)C)C(=O)N(C)[C@@H](CC(C)C)C(=O)N[C@@H](C)C(=O)N[C@H](C)C(=O)N(C)[C@@H](CC(C)C)C(=O)N(C)[C@@H](CC(C)C)C(=O)N(C)[C@@H](C(C)C)C(=O)N1C [DEBIO-025]
[1]
  binding affinity for cyclophilin A: potent binding affinity
[2]
  inhibition of hepatitis C virus replication: potent and selective inhibition
